Measured values reported in patent publication US20220296566A1, “COMBINATION PRODUCT CONTAINING LIMONOID COMPOUND AND ALPHA-GLUCOSIDASE INHIBITOR” (ZHEJIANG YANGSHENGTANG INSTITUTE OF NATURAL MEDICATION CO., …, priority 2019, published 2022).

Tested on: STZ mice
Assay: Blood glucose in mouse type II diabetes model with pancreatic islet damage and obesity, STZ plus high-fat diet (Example 5)
Type: in vivo
Settings: STZ + high-fat diet ICR mice; single agent 0.5 g/kg per day by gavage, two weeks; 1 h after last administration; mean ± SD
Source text: Effects of limonoid compound, acarbose or combination thereof on blood glucose in mouse type II diabetes model with pancreatic islet damage and obesity
In this example, a mouse model of type II diabetes with pancreatic islet damage and obesity was established by multiple modeling ICR mice with a small dose of streptozotocin (STZ), following with continuous high-fat diets (referring to literature: Zhang Jiyuan et al, Study on the effect of three plant extracts on improving glucose and lipid metabolism in type 2 diabetic mice, Food and Machinery, 2016, 32 (12): 142-147). […]
Experimental grouping: 15 male mice were randomly selected as the normal control group, and the remaining mice were subjected to a high-fat diet (high-fat diet formula: cholesterol 1%, egg yolk powder 10%, lard oil 10%, and basic feed 79%, for establishing an obesity mouse model) for consecutive 4 weeks and intraperitoneal injection of STZ at a dose of 35mg/kg for three consecutive days. After one week, the mice were subject to 24 hours of fasting and water deprivation, their fasting blood glucose was measured, and the mice with a blood glucose level of 15 to 25 mmol/L were selected and undifferentiatedly grouped and used in the experiment, continuously subjected to the high-fat diet, 15 mice in each group, and subjected to blood sampling and detection of indicators after 2 weeks of administration. […]

Compound `C[C@H]1O[C@H](O[C@H]2[C@H](O)[C@@H](O)[C@@H](O[C@H]3[C@H](O)[C@@H](O)C(O)O[C@@H]3CO)O[C@@H]2CO)[C@H](O)[C@@H](O)[C@@H]1N[C@H]1C=C(CO)[C@@H](O)[C@H](O)[C@H]1O` (stereo partly shown) [Acarbose, acarbose] has a Blood glucose value of 15.7 ± 3.0 mmol/L.
